Test results published in ChEMBL document CHEMBL3045987, “Antitussive effects of azepino[2,1-b]quinazolones” (Med Chem Res, 2012).
Active and inactive are the calls of the source. No cut-off for these calls is given here.

How the values were obtained:
Type in all cases: functional, organism-based
[1] = test system: Cavia porcellus; test: Antitussive activity against citric acid-induced cough in Cavia porcellus albino (guinea pig) model assessed as decrease in cough frequency per 10 min at 10 mg/kg, ip administered 30 min before aersol of citric acid for 10 min; design: dose 10 mg/kg
[2] = test system: Cavia porcellus; test: Antitussive activity against citric acid-induced cough in Cavia porcellus albino (guinea pig) model assessed as increase in cough latency at 10 mg/kg, ip administered 30 min before aersol of citric acid for 10 min; design: dose 10 mg/kg
[3] = test system: Cavia porcellus; test: Antitussive activity against citric acid-induced cough in Cavia porcellus albino (guinea pig) model assessed as decrease in cough frequency per 10 min at 5 to 20 mg/kg, ip administered 30 min before aersol of citric acid for 10 min
[4] = test system: Cavia porcellus; test: Antitussive activity against citric acid-induced cough in Cavia porcellus albino (guinea pig) model assessed as increase in cough latency at 5 to 20 mg/kg, ip administered 30 min before aersol of citric acid for 10 min

| Compound | inhibition [1] | Activity [2] | inhibition [3] | Activity [4] |
| --- | --- | --- | --- | --- |
| COc1ccc2c3c1O[C@H]1[C@@H](O)C=C[C@H]4[C@@H](C2)N(C)CC[C@@]341 | Active | Active |  |  |
| O=c1c2cc([N+](=O)[O-])ccc2nc2n1CCCCC2 |  |  | Active | Active |
| O=C1c2ccccc2N(C(=O)c2ccccc2)C2CCCCCN12 (centres undefined) |  |  | Active | Active |
| CN1c2ccccc2C(=O)N2CCCCCC21 (centres undefined) |  |  | Active | Active |
| O=c1c2ccccc2nc2n1CCCCC2 |  |  | Active | Active |
| COc1cc(CNc2ccc3nc4n(c(=O)c3c2)CCCCC4)cc(OC)c1OC |  |  | Active | Active |
| O=c1c2cc(NCc3ccc([N+](=O)[O-])cc3)ccc2nc2n1CCCCC2 |  |  | Active | Active |
| O=c1c2cc(O)cc(O)c2nc2n1CCCCC2 |  |  | Active | Active |
| O=C1c2ccccc2NC2CCCCCN12 (centres undefined) |  |  | Active | Active |
| Nc1ccc2nc3n(c(=O)c2c1)CCCCC3 |  |  | Active | Active |
| O=C1c2ccccc2N(Cc2ccccc2)C2CCCCCN12 (centres undefined) |  |  | Active | Active |
| COc1cc(OC)c2nc3n(c(=O)c2c1)CCCCC3 |  |  | Active | Active |
| O=c1c2cc(Br)cc(Br)c2nc2n1CCCCC2 |  |  | Active | Active |
| N#Cc1ccc(CNc2ccc3nc4n(c(=O)c3c2)CCCCC4)cc1 |  |  | Active | Active |
| CCN1c2ccccc2C(=O)N2CCCCCC21 (centres undefined) |  |  | Active | Active |
| CC(=O)N1c2ccccc2C(=O)N2CCCCCC21 (centres undefined) |  |  | Active | Active |
| COc1ccc(CNc2ccc3nc4n(c(=O)c3c2)CCCCC4)cc1OC |  |  | Active | Active |
